Assay results taken from US8303962B2, “Antibacterial and antifungal peptides” (C3 Jian, Inc., priority 2009, dated 2012).
In brackets after ≈: the same amount, converted by molar mass. Peptide text beside a SMILES is read from it.

system: T. rubrum; assay: not given; format: cell-based, Trichophyton rubrum; conditions: not given
Experimental: (§1) In certain embodiments the MIC assays are performed as described herein in the Examples. For each organism, the media and growth conditions utilized is detailed in Table 8.
(§2) In certain embodiments the MIC assays are performed as follows: For each organism, the media and growth conditions utilized is detailed in Table 8.

| Compound | MIC [µM] |
| --- | --- |
| CC(C)[C@H](NC(=O)[C@H](CCCCN)NC(=O)[C@H](Cc1c[nH]c2ccccc12)NC(=O)CNC(=O)[C@@H](NC(=O)[C@H](CC(=O)O)NC(=O)[C@H](CO)NC(=O)[C@H](Cc1c[nH]cn1)NC(=O)CNC(=O)[C@@H]1CCCN1C(=O)[C@@H](NC(=O)[C@H](CCCNC(=N)N)NC(=O)[C@H](CO)NC(=O)[C@@H](N)Cc1c[nH]c2ccccc12)C(C)C)[C@@H](C)O)C(=O)N[C@@H](Cc1c[nH]c2ccccc12)C(=O)N[C@@H](Cc1c[nH]cn1)C(=O)N[C@@H](CCCNC(=N)N)C(=O)N[C@@H](Cc1c[nH]c2ccccc12)C(=O)O [PF-547] (H-WSRVPGHSDTGWKVWHRW-OH; N-terminus and C-terminus assumed) | 25 (≈ 56.9 µg/mL) |

system: B. subtilis; assay: not given; format: cell-based, Bacillus subtilis; conditions: not given
Experimental: as §1, §2

| Compound | MIC [µM] |
| --- | --- |
| CC(C)[C@H](NC(=O)[C@H](CCCCN)NC(=O)[C@H](Cc1c[nH]c2ccccc12)NC(=O)CNC(=O)[C@@H](NC(=O)[C@H](CC(=O)O)NC(=O)[C@H](CO)NC(=O)[C@H](Cc1c[nH]cn1)NC(=O)CNC(=O)[C@@H]1CCCN1C(=O)[C@@H](NC(=O)[C@H](CCCNC(=N)N)NC(=O)[C@H](CO)NC(=O)[C@@H](N)Cc1c[nH]c2ccccc12)C(C)C)[C@@H](C)O)C(=O)N[C@@H](Cc1c[nH]c2ccccc12)C(=O)N[C@@H](Cc1c[nH]cn1)C(=O)N[C@@H](CCCNC(=N)N)C(=O)N[C@@H](Cc1c[nH]c2ccccc12)C(=O)O [PF-547] (H-WSRVPGHSDTGWKVWHRW-OH; N-terminus and C-terminus assumed) | 25 (≈ 56.9 µg/mL) |

system: Candida albicans; assay: Peptide binding to Candida albicans; conditions: tested at 3.13, 6.25, 12.5 and 25.0 μM in 1× PBS or 20 mM HEPES, 150 mM NaCl, 1 mM MgCl2, 0.1% CTAB
Experimental: The peptides in Table 6 were tested for binding efficiency at 3.13, 6.25, 12.5 and 25.0 μM concentrations in 1× phosphate-buffered saline or 20 mM HEPES (4-(2-hydroxyethyl)-1-piperazineethanesulfonic acid), 150 mM sodium chloride, 1 mM magnesium chloride and 0.1% CTAB.

| Compound | Target(s): form of Candida albicans bound |
| --- | --- |
| EILNNNQVIKELTMKYKTQFESNLGGWTARARR (Antimicrobial peptide and/or targeting peptide) [PF-580] | hyphae |
| NILFGIIGFVVAMTAAVIVTAISIAK (Antimicrobial peptide and/or targeting peptide) [PF-543] | hyphae |
| NRQAQGERAHGEQQG (Antimicrobial peptide and/or targeting peptide) [1T-70] | yeast cells |
| KLRSASKKSLQEKSCGIMPEKPAG (Antimicrobial peptide and/or targeting peptide) [PF-206] | hyphae |
| DLRKAK (Antimicrobial peptide and/or targeting peptide) [PF-024] | hyphae |
| RFFNFEIKKSTKVDYVFAHVDLSDV (Antimicrobial peptide and/or targeting peptide) [PF-051] | hyphae |
| CC[C@H](C)[C@H](NC(=O)[C@H](CC(N)=O)NC(=O)[C@@H](NC(=O)[C@H](Cc1ccccc1)NC(=O)[C@H](CCC(=O)O)NC(=O)CNC(=O)[C@H](CCC(N)=O)NC(=O)[C@H](Cc1ccccc1)NC(=O)[C@@H](N)CCCCN)[C@@H](C)O)C(=O)NCC(=O)N[C@@H](CCC(N)=O)C(=O)N[C@@H](CO)C(=O)N[C@@H](Cc1ccc(O)cc1)C(=O)N[C@H](C(=O)N[C@H](C(=O)N[C@@H](CO)C(=O)N[C@@H](C)C(=O)N[C@@H](CO)C(=O)N[C@@H](Cc1c[nH]cn1)C(=O)N[C@@H](CCSC)C(=O)N[C@@H](CO)C(=O)N[C@H](C(=O)N[C@@H](CO)C(=O)N[C@@H](CC(C)C)C(=O)N[C@@H](CC(N)=O)C(=O)N[C@H](C(=O)NCC(=O)N[C@@H](CCCCN)C(=O)O)[C@@H](C)O)[C@@H](C)O)C(C)C)[C@@H](C)CC [PF-583] (H-KFQGEFTNIGQSYIVSASHMSTSLNTGK-OH; N-terminus and C-terminus assumed) | hyphae |
| RLARGRPTNLCGRRG (Antimicrobial peptide and/or targeting peptide) [PF-170] | yeast cells |
| AIEGVIKKGACFKLLRHEMF (Antimicrobial peptide and/or targeting peptide) [PF-167] | yeast cells |
| VVRRFQGM (Antimicrobial peptide and/or targeting peptide) [PF-141] | hyphae |
| MIHLTKQNTMEALHFIKQFYDMFFILNFNV (Antimicrobial peptide and/or targeting peptide) [PF-040] | hyphae |
| HSSHL (Antimicrobial peptide and/or targeting peptide) [PF-060] | hyphae |
| LVRLA (Antimicrobial peptide and/or targeting peptide) [PF-636] | hyphae |
| MPKARPVNHNKKKSKITIKSNFTLFYMFNP (Antimicrobial peptide and/or targeting peptide) [PF-634] | hyphae |
| VYRHLRFIDGKLVEIRLERK (Antimicrobial peptide and/or targeting peptide) [1T-36] | hyphae |
| HARAAVGVAELPRGAAVEVELIAAVRP (Antimicrobial peptide and/or targeting peptide) [1T-65] | hyphae |
| SKFELVNYASGCSCGADCKCASETECKCASKK (Antimicrobial peptide and/or targeting peptide) [PF-761] | hyphae |
| CC[C@H](C)[C@H](NC(=O)[C@H](C)NC(=O)[C@@H]1CCCN1C(=O)[C@H](Cc1ccccc1)NC(=O)[C@@H]1CCCN1C(=O)[C@H](CC(C)C)NC(=O)[C@@H](N)C(C)C)C(=O)N1CCC[C@H]1C(=O)N[C@@H](CC(C)C)C(=O)N[C@@H](CO)C(=O)N[C@@H](CCCNC(=N)N)C(=O)N[C@@H](CCCNC(=N)N)C(=O)N[C@@H](CCCNC(=N)N)C(=O)N[C@@H](C)C(=O)N[C@@H](CS)C(=O)N[C@H](C(=O)N[C@@H](C)C(=O)N[C@@H](C)C(=O)N1CCC[C@H]1C(=O)N[C@@H](CCCNC(=N)N)C(=O)N1CCC[C@H]1C(=O)N[C@@H](CCCNC(=N)N)C(=O)N[C@@H](CO)C(=O)N[C@@H](CCCNC(=N)N)C(=O)N[C@@H](CCC(N)=O)C(=O)N[C@@H](CCCNC(=N)N)C(=O)N[C@@H](C)C(=O)N[C@@H](CO)C(=O)O)C(C)C [PF-168] (H-VLPFPAIPLSRRRACVAAPRPRSRQRAS-OH; N-terminus and C-terminus assumed) | yeast cells |
| GVGIGFIMMGVVGYAVKLVHIPIRYLIV (Antimicrobial peptide and/or targeting peptide) [PF-770] | hyphae |
| GGTKEIVYQRG (Antimicrobial peptide and/or targeting peptide) [1T-68] | yeast cells |
| EVYSSPTNNVAITVQNN (Antimicrobial peptide and/or targeting peptide) [PF-178] | hyphae |
| RLTSNQFLTRITPFVFAQH (Antimicrobial peptide and/or targeting peptide) [PF-176] | yeast cells |
